According to publication PMC9033141, “Beta and Gamma Amino Acid-Substituted Benzenesulfonamides as Inhibitors of Human Carbonic Anhydrases” (Pharmaceuticals, 2022):
Where two headings read alike, the source gives them in different places.

Assays:
[1] = molecular target: T1, CAIV (Homo sapiens, UniProt P22748); experiment: Fluorescent thermal shift assay (FTSA), CAIV; assay type: binding;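 also: recombinant human enzyme, thermal denaturation followed by ANS fluorescence, melting temperature versus ligand concentration fitted for Kd_obs, intrinsic value corrected for deprotonated sulfonamide and Zn-bound water fractions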
T1 construct: made in house; host or cells: E. coli
T1 sequence (P22748 19-312): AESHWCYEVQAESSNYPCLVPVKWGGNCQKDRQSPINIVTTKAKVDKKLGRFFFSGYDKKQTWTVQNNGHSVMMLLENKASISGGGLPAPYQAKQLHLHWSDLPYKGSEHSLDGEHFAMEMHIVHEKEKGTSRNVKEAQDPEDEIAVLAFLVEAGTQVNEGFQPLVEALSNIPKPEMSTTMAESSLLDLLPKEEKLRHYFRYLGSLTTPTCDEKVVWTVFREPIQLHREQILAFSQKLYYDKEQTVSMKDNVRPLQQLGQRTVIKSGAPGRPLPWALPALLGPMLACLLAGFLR
Procedure: (§1) Human CA isozymes were expressed in E. coli (CAI, II, III, IV, VA, VB, VII, XII, XIII, XIV) or mammalian cells (CAVI and CAIX), chromatographically purified following the published protocols [47], and stored at −80 °C. The protein concentration was determined by UV absorption at 280 nm using Beer–Lambert law.
(§2) The QIAGEN Rotor-Gene Q was used to carry out the experiments, with a blue channel used for excitation (365 nm) and detection (460 nm). FTSA in this case relies on an extrinsic probe, 8-anilino-1-naphthalenesulfonate (ANS), to detect the fluorescence increase during protein denaturation, from which protein melting temperature (Tm) can be determined. […] The observed affinity of ligands for CAs was determined by plotting the Tm as a function of ligand concentration and then fitting a curve as described previously [48]. […] Samples were heated from 25 °C to 99 °C at the speed of 1 °C/min.
(§3) The intrinsic thermodynamic parameters were calculated as described in [40]. The intrinsic reaction of inhibitor binding to CA is shown in Equation (1). […] It is known that CA proteins bind sulfonamides only when water molecules are coordinated to the Zn(II) ion, and sulfonamides only bind to CA proteins when their amino group is deprotonated (confirmed by neutron crystallography [53, 54, 55]):(1) CA Zn^II−H2O+RSO2NH^−⇄ CA Zn^II−NH SO2R+H2O
(§4) When calculating Kd_int values, these protein and ligand fractions from Equation (1) have to be accounted for (Equations (2) and (3)). The intrinsic dissociation constant is calculated by multiplying Kd_obs value by the corresponding fractions of protein and ligand (Equation (4)). (2) fRSO2NH^−=10^pH−pKa_RSO2NH2/1+10^pH−pKa_RSO2NH2 (3) fCAZnH2O=1−10^pH−pKa_CAZnH2O/1+10^pH−pKa_CAZnH2O (4) Kd_int=Kd_obs×fRSO2NH^−×fCAZnH2O (5) ΔGint0=RTlnKd_int
(§5) The intrinsic standard Gibbs energy changes upon binding were calculated using Equation (5). Here, R—universal ideal gas constant (8.3144 J/mol·K), T—absolute temperature (310.15 K).

[2] = molecular target: T2, CAXIII (Homo sapiens, UniProt Q8N1Q1); experiment: biochemical; settings: Observed Dissociation Constant (Kd_obs), FTSA, pH 7.0, 37 °C
T2 sequence (Q8N1Q1 whole entry): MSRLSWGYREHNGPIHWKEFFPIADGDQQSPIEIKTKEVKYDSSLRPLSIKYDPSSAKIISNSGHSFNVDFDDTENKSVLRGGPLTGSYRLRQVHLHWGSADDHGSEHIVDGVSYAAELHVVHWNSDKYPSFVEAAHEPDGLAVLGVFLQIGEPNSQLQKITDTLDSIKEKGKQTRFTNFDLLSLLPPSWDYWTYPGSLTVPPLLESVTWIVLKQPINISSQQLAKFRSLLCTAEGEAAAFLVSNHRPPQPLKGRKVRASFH

[3] = molecular target: T3, CAXIV (Homo sapiens, UniProt Q9ULX7); experiment: Fluorescent thermal shift assay (FTSA), CAXIV; assay type: binding;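 also: recombinant human CA XIV from E. coli, ANS-based thermal shift: Kd_obs fitted from melting temperature versus ligand concentration, ΔGint from Kd_obs corrected for deprotonated sulfonamide and Zn-water fractions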
T3 construct: made in house; host or cells: E. coli
T3 sequence (Q9ULX7 16-337): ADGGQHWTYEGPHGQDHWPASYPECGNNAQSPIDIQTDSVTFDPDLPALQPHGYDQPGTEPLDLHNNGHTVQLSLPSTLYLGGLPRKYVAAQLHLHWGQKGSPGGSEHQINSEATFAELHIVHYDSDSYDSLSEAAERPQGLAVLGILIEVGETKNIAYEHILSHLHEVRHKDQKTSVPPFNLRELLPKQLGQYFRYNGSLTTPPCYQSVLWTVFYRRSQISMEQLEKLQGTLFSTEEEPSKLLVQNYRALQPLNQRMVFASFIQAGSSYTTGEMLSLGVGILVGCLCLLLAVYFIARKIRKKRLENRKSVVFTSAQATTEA

[4] = molecular target: T4, CAVI (Homo sapiens, UniProt P23280); experiment: Fluorescent thermal shift assay (FTSA), CAVI; assay type: binding;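 also: human CAVI expressed in mammalian cells, ANS fluorescence tracked during thermal unfolding, melting temperature fitted against ligand concentration, intrinsic values corrected for deprotonated sulfonamide and Zn-bound water fractions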
T4 construct: made in house
T4 sequence (P23280 21-290 limits assumed): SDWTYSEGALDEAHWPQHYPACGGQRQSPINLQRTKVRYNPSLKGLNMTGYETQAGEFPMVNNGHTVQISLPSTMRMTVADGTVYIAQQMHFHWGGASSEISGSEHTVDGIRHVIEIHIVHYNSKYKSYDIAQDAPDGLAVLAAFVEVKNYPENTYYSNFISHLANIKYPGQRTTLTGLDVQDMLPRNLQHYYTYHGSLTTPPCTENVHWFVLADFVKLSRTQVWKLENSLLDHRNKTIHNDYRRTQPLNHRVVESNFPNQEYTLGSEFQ
Procedure: as §1, §2, §3, §4, §5

[5] = molecular target: T5, CAI (Homo sapiens, UniProt P00915); experiment: biochemical; assay type: binding
T5 construct: made in house; host or cells: E. coli
T5 sequence (P00915 whole entry): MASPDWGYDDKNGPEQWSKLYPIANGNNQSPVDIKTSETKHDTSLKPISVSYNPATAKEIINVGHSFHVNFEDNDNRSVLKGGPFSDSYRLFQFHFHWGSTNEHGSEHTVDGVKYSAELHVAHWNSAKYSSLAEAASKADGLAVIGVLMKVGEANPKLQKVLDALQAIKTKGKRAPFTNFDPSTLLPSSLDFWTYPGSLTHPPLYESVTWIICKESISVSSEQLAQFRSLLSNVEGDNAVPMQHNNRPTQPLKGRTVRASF

[6] = molecular target: T6, CAIX (Homo sapiens, UniProt Q16790); experiment: biochemical; assay type: binding
T6 construct: made in house
Procedure: as §1, §2
(§6) The intrinsic thermodynamic parameters were calculated as described in [40]. The intrinsic reaction of inhibitor binding to CA is shown in Equation (1).
as §4, §5

[7] = molecular target: T7, CAVB (Homo sapiens, UniProt Q9Y2D0); experiment: Fluorescent thermal shift assay (FTSA), CAVB; assay type: binding
T7 construct: made in house; host or cells: E. coli
T7 sequence (Q9Y2D0 34-317): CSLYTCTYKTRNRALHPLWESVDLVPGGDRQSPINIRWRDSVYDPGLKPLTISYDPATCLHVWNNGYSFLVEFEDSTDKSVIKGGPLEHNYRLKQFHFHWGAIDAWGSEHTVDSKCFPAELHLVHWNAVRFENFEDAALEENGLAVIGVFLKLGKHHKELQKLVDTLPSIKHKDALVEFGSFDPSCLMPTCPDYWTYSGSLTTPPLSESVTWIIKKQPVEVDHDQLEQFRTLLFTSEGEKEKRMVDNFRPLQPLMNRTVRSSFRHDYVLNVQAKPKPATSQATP
Procedure: as §1, §2, §3, §4, §5

[8] = molecular target: T8, CAVA (Homo sapiens, UniProt P35218); experiment: Fluorescent thermal shift assay (FTSA), CAVA; assay type: binding
T8 construct: made in house; host or cells: E. coli
T8 sequence (P35218 39-305): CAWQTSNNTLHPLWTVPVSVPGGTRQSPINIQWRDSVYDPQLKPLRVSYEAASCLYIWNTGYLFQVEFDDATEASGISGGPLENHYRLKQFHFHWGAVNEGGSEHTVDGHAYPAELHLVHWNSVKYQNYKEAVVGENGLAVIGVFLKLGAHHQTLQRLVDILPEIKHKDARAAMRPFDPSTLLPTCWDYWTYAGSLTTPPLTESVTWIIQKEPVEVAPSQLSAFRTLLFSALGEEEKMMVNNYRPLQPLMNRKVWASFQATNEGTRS
Procedure: as §1, §2, §3, §4, §5

[9] = molecular target: T9, CAII (Homo sapiens, UniProt P00918); experiment: biochemical; assay type: binding
T9 construct: made in house; host or cells: E. coli
Procedure: as §1, §2, §6, §4, §5

[10] = molecular target: T10, CAXII (Homo sapiens, UniProt O43570); experiment: biochemical; assay type: binding
T10 construct: made in house; host or cells: E. coli
T10 sequence (O43570 25-354): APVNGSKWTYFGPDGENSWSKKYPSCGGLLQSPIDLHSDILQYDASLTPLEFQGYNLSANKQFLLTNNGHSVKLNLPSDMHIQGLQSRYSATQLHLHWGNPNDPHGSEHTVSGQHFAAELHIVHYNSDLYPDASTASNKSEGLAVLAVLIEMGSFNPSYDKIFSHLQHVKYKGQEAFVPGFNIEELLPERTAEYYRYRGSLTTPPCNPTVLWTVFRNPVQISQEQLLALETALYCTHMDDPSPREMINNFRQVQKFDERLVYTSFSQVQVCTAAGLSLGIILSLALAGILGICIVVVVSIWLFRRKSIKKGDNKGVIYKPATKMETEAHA

[11] = molecular target: T11, CAVII (Homo sapiens, UniProt P43166); experiment: Fluorescent thermal shift assay (FTSA), CAVII; assay type: binding
T11 construct: made in house; host or cells: E. coli
T11 sequence (P43166 whole entry): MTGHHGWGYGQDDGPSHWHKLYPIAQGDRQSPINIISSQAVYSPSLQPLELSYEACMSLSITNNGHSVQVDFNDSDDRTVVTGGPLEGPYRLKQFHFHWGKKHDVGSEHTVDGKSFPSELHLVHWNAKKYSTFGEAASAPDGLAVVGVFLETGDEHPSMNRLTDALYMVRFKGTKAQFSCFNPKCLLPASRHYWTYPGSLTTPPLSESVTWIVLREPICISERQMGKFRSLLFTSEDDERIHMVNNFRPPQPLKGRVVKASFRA
Procedure: as §1, §2, §3, §4, §5

[12] = molecular target: T9, CAII; experiment: Isothermal titration calorimetry (ITC), CAII; assay type: binding; settings: pH 7.0, 37 °C, read-out: Observed Dissociation Constant (Kd_obs), CAII, ITC data in brackets
[13] = molecular target: T12, CAIII (Homo sapiens, UniProt P07451); experiment: Fluorescent thermal shift assay (FTSA), CAIII; assay type: binding; settings: FTSA, pH 7.0, 37 °C; read-out: Observed Dissociation Constant (Kd_obs), CAIII
T12 construct: made in house; host or cells: E. coli
T12 sequence (P07451 whole entry): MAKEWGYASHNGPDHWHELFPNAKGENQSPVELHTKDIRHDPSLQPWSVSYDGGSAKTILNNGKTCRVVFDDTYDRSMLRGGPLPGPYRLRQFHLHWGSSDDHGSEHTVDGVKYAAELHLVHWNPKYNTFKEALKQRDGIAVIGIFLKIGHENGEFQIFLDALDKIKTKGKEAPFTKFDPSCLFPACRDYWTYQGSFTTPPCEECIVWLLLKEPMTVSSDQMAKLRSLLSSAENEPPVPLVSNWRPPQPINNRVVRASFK

[14] = molecular target: T2, CAXIII; settings: 37 °C; calculated (Equation 5)
[15] = Determination of compound sulfonamide group pKa (UV-Vis spectra at different pH); assay type: physicochemical; settings: universal buffer; spectrophotometric, 37 °C; read-out: Sulfonamide pKa
Procedure: To calculate the intrinsic thermodynamic parameters of compound binding to CA isozymes, the pKa values of the sulfonamide group and the water molecule bound to the Zn(II) ion at the active site of CA proteins had to be determined. The pKa values for CA isozyme-bound water molecules were taken from, CAI—8.1; CAII—6.9; CAIII—6.5; CAIV—6.6; CAVA—6.7; CAVB—7.0; CAVI—6.0; CAVII—6.8; CAIX—6.6; CAXII—6.8; CAXIII—8.0; CAXIV—6.1. […] The pKa values were calculated as described previously in [28, 52] by normalizing the absorbance, plotting it as a function of pH, then fitting to the Henderson–Hasselbalch equation using the least square method (Figure S105).
Since the pKa values were only able to be measured for compound group 26–36, due to universal buffer pH limitations, intrinsic thermodynamic parameters were not calculated for compounds 2(a,b)–25(a,b), only for compounds 26–36 using experimentally obtained pKa values when possible and using the average pKa value mentioned above for compounds not measured.

[16] = molecular target: T6, CAIX; settings: FTSA, pH 7.0, 37 °C; taken from previous publication; read-out: Observed Dissociation Constant (Kd_obs), CAIX; cited from earlier work
[17] = molecular target: T9, CAII; settings: FTSA, pH 7.0, 37 °C; taken from previous publication; read-out: Observed Dissociation Constant (Kd_obs), CAII; cited from earlier work
[18] = molecular target: T10, CAXII; settings: FTSA, pH 7.0, 37 °C; taken from previous publication; read-out: Observed Dissociation Constant (Kd_obs), CAXII; cited from earlier work
[19] = molecular target: T2, CAXIII; settings: read-out: Observed Dissociation Constant (Kd_obs), CAXIII; FTSA, pH 7.0, 37 °C; taken from previous publication; cited from earlier work
[20] = molecular target: T5, CAI; settings: FTSA, pH 7.0, 37 °C; taken from previous publication; read-out: Observed Dissociation Constant (Kd_obs), CAI; cited from earlier work
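For Intrinsic Gibbs energy change (ΔGint), CAII in this document: recombinant human CAII, thermal shift with ANS dye fluorescence, Kd_obs from fitting melting temperature versus ligand concentration, intrinsic values corrected for deprotonated sulfonamide and Zn-bound water fractions.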
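For Intrinsic Gibbs energy change (ΔGint), CAXIII in this document: recombinant human CAXIII melting temperature tracked by ANS fluorescence in thermal shift assay, Tm fitted against ligand concentration, intrinsic value corrects Kd for deprotonated sulfonamide and Zn-bound water fractions.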

Structure (SMILES): COC(=O)CCN(c1ccc(S(N)(=O)=O)cc1)c1nc(C)cs1 [Compound 28, Methyl 3-((4-Methylthiazol-2-yl)(4-sulfamoylphenyl)amino)propanoate]
- Intrinsic Gibbs energy change (ΔGint), CAIV ([1]; 37 °C, calculated (Equation 5)): -13.6 kcal/mol
- Kd ([1]; FTSA, pH 7.0, 37 °C, read-out: Observed Dissociation Constant (Kd_obs), CAIV): 1100 nM
- Kd [2]: 250 nM
- Intrinsic Gibbs energy change (ΔGint), CAXIV ([3]; 37 °C, calculated (Equation 5)): -16.4 kcal/mol
- Kd ([3]; FTSA, pH 7.0, 37 °C, read-out: Observed Dissociation Constant (Kd_obs), CAXIV): 29 nM
- Intrinsic Gibbs energy change (ΔGint), CAVI ([4]; 37 °C, calculated (Equation 5)): -13.2 kcal/mol
- Kd ([4]; FTSA, pH 7.0, 37 °C, read-out: Observed Dissociation Constant (Kd_obs), CAVI): 7100 nM
- Intrinsic Gibbs energy change (ΔGint), CAI ([5]; 37 °C, calculated (Equation 5)): -15 kcal/mol
- Kd ([5]; FTSA, pH 7.0, 37 °C, read-out: Observed Dissociation Constant (Kd_obs), CAI): 37 nM
- Intrinsic Gibbs energy change (ΔGint), CAIX ([6]; 37 °C, calculated (Equation 5)): -15.8 kcal/mol
- Kd ([6]; FTSA, pH 7.0, 37 °C, read-out: Observed Dissociation Constant (Kd_obs), CAIX): 33 nM
- Intrinsic Gibbs energy change (ΔGint), CAVB ([7]; 37 °C, calculated (Equation 5)): -15.2 kcal/mol
- Kd ([7]; FTSA, pH 7.0, 37 °C, read-out: Observed Dissociation Constant (Kd_obs), CAVB): 46 nM
- Intrinsic Gibbs energy change (ΔGint), CAVA ([8]; 37 °C, calculated (Equation 5)): -11.2 kcal/mol
- Kd ([8]; FTSA, 200 µM the weakest detectable Kd_obs, read-out: Kd_obs, CAVA): 50000 nM
- Intrinsic Gibbs energy change (ΔGint), CAII ([9]; 37 °C, calculated (Equation 5)): -15.3 kcal/mol
- Kd ([9]; FTSA, pH 7.0, 37 °C, read-out: Observed Dissociation Constant (Kd_obs), CAII): 45 nM
- Intrinsic Gibbs energy change (ΔGint), CAXII ([10]; 37 °C, calculated (Equation 5)): -14.3 kcal/mol
- Kd ([10]; FTSA, pH 7.0, 37 °C, read-out: Observed Dissociation Constant (Kd_obs), CAXII): 250 nM
- Intrinsic Gibbs energy change (ΔGint), CAVII ([11]; 37 °C, calculated (Equation 5)): -15.1 kcal/mol
- Kd ([11]; FTSA, pH 7.0, 37 °C, read-out: Observed Dissociation Constant (Kd_obs), CAVII): 77 nM
- Kd [12]: 59 nM
- Kd [13]: ≥ 200000 nM
- Intrinsic Gibbs energy change (ΔGint), CAXIII [14]: -13.8 kcal/mol
- melting point: 72 to 73 °C
- pKa [15]: 10.1

Structure (SMILES): NS(=O)(=O)c1ccc(N(CCC(=O)O)c2nc(-c3ccc(Cl)cc3)cs2)cc1 [Compound 35]
- Kd [16]: 560 nM
- Kd [17]: 100 nM
- Kd [18]: 200 nM
- Kd [19]: 530 nM
- Kd [20]: 25 nM
